The subject of assay [1] is MK-801-induced hyperactivity. Put plainly: MK-801-induced hyperactivity test in mice. It counts as in vivo. To be noted: Mus musculus.
Assay [2] deals with T1, adrenergic receptor alpha2C (Homo sapiens, UniProt P18825).
T1 construct: expressed in transfected cells; host or cells: recombinant human cells (so in the source)
T1 sequence (P18825 1-462): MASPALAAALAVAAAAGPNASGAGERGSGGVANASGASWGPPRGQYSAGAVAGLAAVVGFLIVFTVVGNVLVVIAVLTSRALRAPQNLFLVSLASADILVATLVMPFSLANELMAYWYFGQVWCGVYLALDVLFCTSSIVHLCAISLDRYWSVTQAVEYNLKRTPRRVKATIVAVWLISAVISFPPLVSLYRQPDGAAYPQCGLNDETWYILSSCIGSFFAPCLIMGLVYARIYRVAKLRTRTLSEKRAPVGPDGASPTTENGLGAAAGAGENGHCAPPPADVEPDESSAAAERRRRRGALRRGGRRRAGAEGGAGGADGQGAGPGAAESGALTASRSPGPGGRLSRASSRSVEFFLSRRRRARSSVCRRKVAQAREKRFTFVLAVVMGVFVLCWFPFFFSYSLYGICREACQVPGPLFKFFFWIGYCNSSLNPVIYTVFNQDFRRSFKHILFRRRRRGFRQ
Put plainly: Inhibition constants (Ki) for adrenergic receptor alpha2C in recombinant cells. To be noted: read-out: pKi α2C (converted). It counts as binding. As for the experimental part: (§1) Compounds of formula 1 have been evaluated in vitro as ligands for dopaminergic and noradrenergic receptors and modulators of the activity of these receptors according to the invention in recombinant human cells expressing the receptors. The inhibition constants (Ki) were measured for dopaminergic receptors D2 and D3, and for adrenergic receptors alpha2A, alpha2B and alpha2C, according to the described methods (Newman-Tancredi A, Assie M B, Martel J C, Cosi C, Slot L B, Palmier C, Rauly-Lestienne I, Colpaert F, Vacher B, Cussac D. F15063, a potential antipsychotic with D2/D3 antagonist, 5-HT 1A agonist and D4 partial agonist properties. I. In vitro receptor affinity and efficacy profile. Br J Pharmacol., 2007, 151:237-252). The intrinsic activity of the products for the D2 receptor was measured (Bruins Slot L A, De Vries L, Newman-Tancredi A, Cussac D. Differential profile of antipsychotics at serotonin 5-HT1A and dopamine D2S receptors coupled to extracellular signal-regulated kinase. Eur J Pharmacol, 2006, 534; 63-70. The results obtained for some of these compounds are presented in the following table.

The target of the next assay is T2, dopaminergic receptor D2 (Homo sapiens, UniProt P14416).
T2 construct: expressed in transfected cells; host or cells: recombinant human cells (so in the source)
Put plainly: Inhibition constants (Ki) for dopaminergic receptor D2 in recombinant cells. It counts as binding. To be noted: read-out: pKi D2 (converted). As for the experimental part:
as §1

Assay [3] deals with T3, adrenergic receptor alpha2B (Homo sapiens, UniProt P18089).
T3 construct: expressed in transfected cells; host or cells: recombinant human cells (so in the source)
T3 sequence (P18089 1-450): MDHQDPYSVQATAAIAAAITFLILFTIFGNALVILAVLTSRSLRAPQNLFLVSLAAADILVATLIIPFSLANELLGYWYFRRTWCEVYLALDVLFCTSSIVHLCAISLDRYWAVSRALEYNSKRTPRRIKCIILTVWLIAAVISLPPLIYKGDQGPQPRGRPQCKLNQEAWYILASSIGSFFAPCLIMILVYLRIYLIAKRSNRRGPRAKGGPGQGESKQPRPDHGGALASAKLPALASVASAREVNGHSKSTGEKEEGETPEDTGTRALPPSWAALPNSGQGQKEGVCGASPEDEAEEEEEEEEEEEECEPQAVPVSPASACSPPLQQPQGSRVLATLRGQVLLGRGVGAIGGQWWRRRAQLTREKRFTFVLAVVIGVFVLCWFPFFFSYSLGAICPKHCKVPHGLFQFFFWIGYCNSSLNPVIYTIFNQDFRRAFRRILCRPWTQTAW
Put plainly: Inhibition constants (Ki) for adrenergic receptor alpha2B in recombinant cells. It counts as binding. Conditions: read-out: pKi α2B (converted). As for the experimental part:
as §1

In another assay the target is T4, dopaminergic receptor D3 (Homo sapiens, UniProt P35462).
T4 construct: expressed in transfected cells; host or cells: recombinant human cells (so in the source)
Put plainly: Inhibition constants (Ki) for dopaminergic receptor D3 in recombinant cells. Conditions: read-out: pKi D3 (converted). It counts as binding. The procedure:
as §1

The target in assay [4] is T5, adrenergic receptor alpha2A (Homo sapiens, UniProt P08913).
T5 construct: expressed in transfected cells; host or cells: recombinant human cells (so in the source)
T5 sequence (P08913 1-465): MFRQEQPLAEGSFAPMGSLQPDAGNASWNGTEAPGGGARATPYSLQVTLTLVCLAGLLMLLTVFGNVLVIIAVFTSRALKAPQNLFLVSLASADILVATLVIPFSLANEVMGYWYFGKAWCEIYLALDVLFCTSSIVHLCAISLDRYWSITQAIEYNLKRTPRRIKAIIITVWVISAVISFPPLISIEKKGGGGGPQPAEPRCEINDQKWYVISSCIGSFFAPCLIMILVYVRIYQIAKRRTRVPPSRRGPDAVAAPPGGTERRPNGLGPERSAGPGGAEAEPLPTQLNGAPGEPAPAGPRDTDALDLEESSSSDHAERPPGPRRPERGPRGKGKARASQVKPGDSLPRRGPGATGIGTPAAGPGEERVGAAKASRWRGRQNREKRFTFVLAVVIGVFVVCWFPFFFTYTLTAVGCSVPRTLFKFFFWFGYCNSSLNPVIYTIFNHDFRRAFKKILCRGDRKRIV
Put plainly: Inhibition constants (Ki) for adrenergic receptor alpha2A in recombinant cells. It counts as binding. To be noted: read-out: pKi α2A (converted). The procedure:
as §1

For the next assay, the target named is T6, D2 receptor (Homo sapiens, UniProt P14416).
T6 construct: expressed in transfected cells; host or cells: recombinant human cells (so in the source)
Put plainly: Intrinsic (agonist) activity at the D2 receptor. It counts as cell-based. The procedure: The prior art mentions, for benzodioxane-piperidine derivatives bearing an amide, a urea or an imidazolidinone, as non-selective alpha2-antagonists (WO 97/28157, WO 98/02435); some of these products also have a weak affinity for the D2 dopaminergic receptor (T. Imbert, J. Med. Chem, 2000, 43: 3653-3664). […] Activity as a D2 and D3 receptor agonist was determined according to the described methods (Bruins Slot L A, De Vries L, Newman-Tancredi A, Cussac D. Differential profile of antipsychotics at serotonin 5-HT1A and dopamine D2S receptors coupled to extracellular signal-regulated kinase. Eur J Pharmacol, 2006, 534; 63-70; Bruins Slot L A, Palmier C, Tardif S, Cussac D. Action of novel antipsychotics at human dopamine D3 receptors coupled to G protein and ERK1/2 activation. Neuropharmacology, 2007, 53: 232-241) for the following compounds, such as described in WO 97/28157 and WO 98/02435; • 1-benzyl-3-(2-(1-((2,3-dihydrobenzo[b][1,4]dioxin-2-yl)methyl)piperidin-4-yl)ethyl)imidazolidin-2-one • 1-(2-(1-((2,3-dihydrobenzo[b][1,4]dioxin-2-yl)methyl)piperidin-4-yl)ethyl)-3-methylimidazolidin-2-one • 1-(2,6-dichlorophenyl)-3-(2-(1-((2,3-dihydrobenzo[b][1,4]dioxin-2-yl)methyl)piperidin-4-yl)ethyl)imidazolidin-2-one • 1-(2-(1-((2,3-dihydrobenzo[b][1,4]dioxin-2-yl)methyl)piperidin-4-yl)ethyl)-3-(pyridin-4-yl)imidazolidin-2-one • 3-(2-(1-((2,3-dihydrobenzo[b][1,4]dioxin-2-yl)methyl)piperidin-4-yl)ethyl)-1-phenylimidazolidine-2,4-dione • (S)—N-(2-(1-((2,3-dihydrobenzo[b][1,4]dioxin-2-yl)methyl)piperidin-4-yl)ethyl)-[1,1′-biphenyl]-4-carboxamide • (S)—N-(2-(1-((2,3-dihydrobenzo[b][1,4]dioxin-2-yl)methyl)piperidin-4-yl)ethyl)-4-(1H-pyrrol-1-yl)benzamide • (S)—N-(2-(1-((2,3-dihydrobenzo[b][1,4]dioxin-2-yl)methyl)piperidin-4-yl)ethyl)-4-(pyridin-4-yl)benzamide • (S)—N-(2-(1-((2,3-dihydrobenzo[b][1,4]dioxin-2-yl)methyl)piperidin-4-yl)ethyl)-4-(pyridin-3-yl)benzamide • (S)—N-(2-(1-((2,3-dihydrobenzo[b][1,4]dioxin-2-yl)methyl)piperidin-4-yl)ethyl)-9-oxo-9H-fluorene-1-carboxamide.
as §1

The values that follow come from patent US20150336943A1, “NOVEL BENZODIOXANE-PIPERIDINE DERIVATIVES AND THEIR THERAPEUTIC APPLICATIONS FOR TREATING NEUROPSYCHIATRIC DISORDERS” (PIERRE FABRE MEDICAMENT, priority 2013, published 2015).

T4 sequence (P35462 whole entry): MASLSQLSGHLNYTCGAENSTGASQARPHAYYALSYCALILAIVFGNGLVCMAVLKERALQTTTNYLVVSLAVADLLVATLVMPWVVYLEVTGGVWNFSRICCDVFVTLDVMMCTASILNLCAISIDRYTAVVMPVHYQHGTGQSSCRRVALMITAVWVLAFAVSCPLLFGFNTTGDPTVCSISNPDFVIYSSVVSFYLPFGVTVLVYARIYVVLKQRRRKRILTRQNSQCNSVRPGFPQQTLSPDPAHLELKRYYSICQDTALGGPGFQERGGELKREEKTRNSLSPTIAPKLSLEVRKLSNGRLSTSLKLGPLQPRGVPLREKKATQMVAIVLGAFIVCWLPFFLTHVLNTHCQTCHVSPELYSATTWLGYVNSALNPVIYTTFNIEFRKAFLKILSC
T6 sequence (P14416 1-414 isoform P14416-2): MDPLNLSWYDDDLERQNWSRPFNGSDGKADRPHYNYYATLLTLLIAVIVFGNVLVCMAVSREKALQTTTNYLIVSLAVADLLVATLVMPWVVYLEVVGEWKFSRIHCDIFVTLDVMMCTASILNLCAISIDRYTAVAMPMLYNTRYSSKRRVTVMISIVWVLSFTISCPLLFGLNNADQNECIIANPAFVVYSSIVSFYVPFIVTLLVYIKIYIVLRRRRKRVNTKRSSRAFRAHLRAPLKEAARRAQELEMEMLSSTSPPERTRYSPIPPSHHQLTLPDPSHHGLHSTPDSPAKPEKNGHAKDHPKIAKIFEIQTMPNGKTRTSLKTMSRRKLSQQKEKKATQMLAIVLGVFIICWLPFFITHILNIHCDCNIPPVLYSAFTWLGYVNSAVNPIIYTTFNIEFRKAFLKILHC
T2 sequence (P14416 whole entry): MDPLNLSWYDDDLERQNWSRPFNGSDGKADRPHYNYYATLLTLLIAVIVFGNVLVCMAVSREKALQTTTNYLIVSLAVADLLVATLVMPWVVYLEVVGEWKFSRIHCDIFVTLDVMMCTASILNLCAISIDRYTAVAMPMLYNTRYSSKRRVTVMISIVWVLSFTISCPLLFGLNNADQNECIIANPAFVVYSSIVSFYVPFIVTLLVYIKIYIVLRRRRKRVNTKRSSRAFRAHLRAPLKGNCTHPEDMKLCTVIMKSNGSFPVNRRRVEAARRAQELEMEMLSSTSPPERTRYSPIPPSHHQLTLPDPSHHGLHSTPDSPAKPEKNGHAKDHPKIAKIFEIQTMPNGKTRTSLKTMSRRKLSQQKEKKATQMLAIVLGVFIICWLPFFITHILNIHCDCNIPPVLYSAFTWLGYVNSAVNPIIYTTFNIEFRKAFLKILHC

The term ED50 denotes the dose at which the effect has come halfway, by size or by number of responders. Low values mean an effect at a small dose, high ones a need for a large dose. Take `O=C1OC[C@H](Cc2ccccc2)N1CCC1CCN(C[C@H]2COc3cc(O)ccc3O2)CC1` [Example 36]: the ED50 in assay [1] is 3.4 mg/kg. Moreover, the Ki in assay [2] was 0.562 nM; on dopaminergic receptor D2, 2.14 nM; in assay [3], 1.17 nM; at dopaminergic receptor D3 it was 1.29 nM; in assay [4], 6.03 nM.
Consider `O=C1OC[C@@H](COc2ccccc2)N1CCC1CCN(C[C@H]2COc3ccc(Br)cc3O2)CC1` [Example 69, (R)-3-(2-(1-(((S)-7-bromo-2,3-dihydrobenzo[b][1,4]dioxin-2-yl)methyl)piperidin-4-yl)ethyl)-4-(phenoxymethyl)oxazolidin-2-one], for which the 50% effective dose (ED50) in assay [1] was determined as 0.6 mg/kg. In addition, the “I.A.: Intrinsic activity on receptor D2 in vitro” value (“I.A.: Intrinsic activity” below) at D2 receptor is recorded as 13 percentage of that of dopamine. Further, the Ki in assay [2] is 8.71 nM; at dopaminergic receptor D2, 0.24 nM; in assay [3] it was 186 nM; at dopaminergic receptor D3 it was 0.417 nM; in assay [4] it was 200 nM.
On to `O=C1OC[C@H](Cc2ccccc2)N1CCC1CCN(C[C@H]2COc3ccc(Br)cc3O2)CC1` [Example 26, (S)-4-benzyl-3-(2-(1-(((S)-7-bromo-2,3-dihydrobenzo[b][1,4]dioxin-2-yl)methyl)piperidin-4-yl)ethyl)oxazolidin-2-one], for which, in assay [1], the ED50 came out at 0.9 mg/kg. The “I.A.: Intrinsic activity” value at D2 receptor was 8 percentage of that of dopamine. In addition, the Ki in assay [2] is 2.04 nM; on dopaminergic receptor D2, 0.891 nM; in assay [3], 9.55 nM; on dopaminergic receptor D3, 0.447 nM; in assay [4], 34.7 nM.
With `O=C1OCCN1CCC1CCN(C[C@H]2COc3c(Cl)cc(F)cc3O2)CC1` [Example 13, (S)-3-(2-(1-((5-chloro-7-fluoro-2,3-dihydrobenzo[b][1,4]dioxin-2-yl)methyl)piperidin-4-yl)ethyl)oxazolidin-2-one], the 50% effect level in assay [1] (ED50) was put at a dose of 0.04 mg/kg. In addition, the “I.A.: Intrinsic activity” value at D2 receptor was 16 percentage of that of dopamine. For the same compound, the Ki in assay [2] is 0.955 nM; at dopaminergic receptor D2, 0.955 nM; in assay [3], 2.57 nM; at dopaminergic receptor D3, 0.603 nM; in assay [4] it was 7.08 nM.
In turn, `O=C1OC[C@H](Cc2ccccc2)N1CCC1CCN(C[C@H]2COc3ccc(OC(F)(F)F)cc3O2)CC1` [Example 32, (S)-4-benzyl-3-(2-(1-(((S)-7-(trifluoromethoxy)-2,3-dihydrobenzo[b][1,4]dioxin-2-yl)methyl)piperidin-4-yl)ethyl)oxazolidin-2-one] showed an ED50 in assay [1] of 2.4 mg/kg. Moreover, the Ki was 6.61 nM in assay [2]; 1.26 nM on dopaminergic receptor D2; 18.2 nM in assay [3]; 0.355 nM on dopaminergic receptor D3; 15.1 nM in assay [4].
In assay [1], `O=C1OCCN1CCC1CCN(C[C@H]2COc3c(F)cc(F)cc3O2)CC1` [Example 10, (S)-3-(2-(1-((5,7-difluoro-2,3-dihydrobenzo[b][1,4]dioxin-2-yl)methyl)piperidin-4-yl)ethyl)oxazolidin-2-one] showed an ED50 of 0.13 mg/kg. Moreover, the “I.A.: Intrinsic activity” value at D2 receptor is reported as 6 percentage of that of dopamine. The Ki was 0.537 nM in assay [2]; 4.57 nM at dopaminergic receptor D2; 0.813 nM in assay [3]; 1.55 nM at dopaminergic receptor D3; 4.57 nM in assay [4].
Turning to `O=C1COCCN1CCC1CCN(C[C@H]2COc3c(F)cc(Cl)cc3O2)CC1` [Example 94, (S)-4-(2-(1-((7-chloro-5-fluoro-2,3-dihydrobenzo[b][1,4]dioxin-2-yl)methyl)piperidin-4-yl)ethyl)morpholin-3-one], the ED50 in assay [1] is 0.19 mg/kg. Further, the “I.A.: Intrinsic activity” value on D2 receptor is 0 percentage of that of dopamine. Further, the Ki was 0.617 nM in assay [2]; 1.66 nM at dopaminergic receptor D2; 4.47 nM in assay [3]; 0.347 nM at dopaminergic receptor D3; 5.37 nM in assay [4].
With `N#Cc1ccc2c(c1)O[C@@H](CN1CCC(CCN3CCOCC3=O)CC1)CO2` [Example 85, (S)-3-((4-(2-(3-oxomorpholino)ethyl)piperidin-1-yl)methyl)-2,3-dihydrobenzo[b][1,4]dioxine-6-carbonitrile], it took a dose of 0.5 mg/kg to reach the 50% effect level in assay [1] (ED50). The Ki is 6.76 nM in assay [2]; 19.1 nM on dopaminergic receptor D2; 81.3 nM in assay [3]; 1.23 nM at dopaminergic receptor D3; 57.5 nM in assay [4].
Take `O=C1COCCN1CCC1CCN(C[C@H]2COc3c(F)cc(F)cc3O2)CC1` [Example 91, (S)-4-(2-(1-((5,7-difluoro-2,3-dihydrobenzo[b][1,4]dioxin-2-yl)methyl)piperidin-4-yl)ethyl)morpholin-3-one]: it took a dose of 0.7 mg/kg to reach the 50% effect level in assay [1] (ED50). In addition, the “I.A.: Intrinsic activity” value on D2 receptor is reported as 24 percentage of that of dopamine. The Ki was 0.437 nM in assay [2]; 15.1 nM at dopaminergic receptor D2; 1.55 nM in assay [3]; 3.31 nM at dopaminergic receptor D3; 4.9 nM in assay [4].
